Test results from patent publication US20260049140A1 (Janux Therapeutics, Inc., priority 2023, published 2026).
pEC50: −log10 of the molar value. Like-named read-outs stand apart in the source and are kept apart here.

Target: wild-type and mutant CD3 binding domains harbored within TROP2 TCE constructs
Experiment: ELISA binding of peptide masks to wild-type and mutated TROP2 TCEs
Conditions: captured biotinylated peptide or CD3-biotin
[1] = read-out: TCE-3 (3075) (R100A) EC50, binding of TCE-3, anti-CD3 R100A
[2] = read-out: TCE-7 (3079) (F104A) EC50, binding of TCE-7, anti-CD3 F104A
[3] = read-out: TCE-13 (3085) (S110A) EC50, binding of TCE-13, anti-CD3 S110A
[4] = read-out: TCE-14 (3086) (Y111A) EC50, binding of TCE-14, anti-CD3 Y111A
[5] = read-out: TCE-15 (3087) (W112A) EC50, binding of TCE-15, anti-CD3 W112A
[6] = read-out: TCE-19 (3091) (W233A) EC50, binding of TCE-19, anti-CD3 W233A
[7] = read-out: TCE-24 (3096) (W238A) EC50, binding of TCE-24, anti-CD3 W238A
[8] = read-out: TCE-26 (3098) (F240A) EC50, binding of TCE-26, anti-CD3 F240A
[9] = read-out: TCE-6 (3078) (N103A) EC50, binding of TCE-6, anti-CD3 N103A
[10] = read-out: TCE-4 (3076) (H101A) EC50, binding of TCE-4, anti-CD3 H101A

Method: Binding was measured in a standard ELISA format. […] Bound TCEs were detected using a standard horse radish peroxidase conjugate secondary antibody. The ELISA signal was plotted versus the log-scale concentration of TCE. The concentrations of TCE required to observe half maximal binding signal (EC50s) were calculated using Graphpad Prism software.

SMILES	pEC50 [1]	pEC50 [2]	pEC50 [3]	pEC50 [4]	pEC50 [5]	pEC50 [6]	pEC50 [7]	pEC50 [8]	pEC50 [9]	pEC50 (read-out: TCE-28 (3100) EC50, binding of TCE-28)	pEC50 (read-out: TCE-1 (2340) (wt) EC50, binding of TCE-1, wild-type anti-CD3)	pEC50 [10]	pEC50 (read-out: TCE-27 (3099) EC50, binding of TCE-27)
CC(C)C[C@@H]1NC(=O)[C@@H](NC(=O)[C@H](CCC(N)=O)NC(=O)[C@H](CO)NC(=O)CN)CSSC[C@@H](C(=O)N2CCC[C@H]2C(=O)N[C@@H](Cc2ccc(O)cc2)C(=O)O)NC(=O)[C@H](C(C)C)NC(=O)[C@H](CCC(=O)O)NC(=O)[C@H](Cc2c[nH]c3ccccc23)NC(=O)[C@H](CCC(=O)O)NC(=O)[C@@H]2CCCN2C(=O)CNC1=O [Peptide-2]	9.24	9.20	8.44	7.31	7.58	8.20	8.20	8.10	–	–	–	–	–
CSCC[C@H](NC(=O)[C@@H]1CSSC[C@H](NC(=O)[C@H](Cc2ccc(O)cc2)NC(=O)[C@@H](N)C(C)C)C(=O)NCC(=O)N2CCC[C@H]2C(=O)N[C@@H](CCC(=O)O)C(=O)N[C@@H](Cc2ccccc2)C(=O)N[C@@H](CC(=O)O)C(=O)N[C@@H](CCC(=O)O)C(=O)N[C@@H](CO)C(=O)N[C@@H](C(C)C)C(=O)NCC(=O)N1)C(=O)O [Peptide-3]	8.75	–	9.18	7.11	7.98	8.19	8.22	8.24	9.70	9.39	–	–	–
CC(C)C[C@@H]1NC(=O)[C@H](CC(=O)O)NC(=O)[C@H](C(C)C)NC(=O)[C@H](CC(C)C)NC(=O)[C@@H](NC(=O)[C@H](CCC(=O)O)NC(=O)[C@@H](N)CO)CSSC[C@@H](C(=O)N[C@@H](Cc2ccc(O)cc2)C(=O)N[C@@H](Cc2c[nH]c3ccccc23)C(=O)O)NC(=O)[C@@H]2CCCN2C(=O)[C@H](CC(=O)O)NC(=O)[C@H](CO)NC(=O)[C@H](CCC(N)=O)NC1=O [Peptide-5]	8.06	8.71	9.02	6.24	7.32	9.46	9.54	9.12	8.77	–	9.52	8.16	9.51
CSCC[C@H](NC(=O)[C@@H]1CSSC[C@H](NC(=O)[C@H](Cc2ccc(O)cc2)NC(=O)[C@H](C)N)C(=O)NCC(=O)N2CCC[C@H]2C(=O)N[C@@H](CCC(=O)O)C(=O)N[C@@H](Cc2ccccc2)C(=O)N[C@@H](CC(=O)O)C(=O)N[C@@H](CCC(=O)O)C(=O)N[C@@H](CO)C(=O)N[C@@H](C(C)C)C(=O)NCC(=O)N1)C(=O)O [Peptide-8]	8.73	–	9.12	7.11	7.95	8.19	8.25	8.24	–	–	–	8.87	–
CC(C)C[C@@H]1NC(=O)[C@@H](NC(=O)[C@H](CCC(N)=O)NC(=O)[C@H](CO)NC(=O)[C@H](C)N)CSSC[C@@H](C(=O)N2CCC[C@H]2C(=O)N[C@@H](Cc2ccc(O)cc2)C(=O)O)NC(=O)[C@H](C(C)C)NC(=O)[C@H](CCC(=O)O)NC(=O)[C@H](Cc2c[nH]c3ccccc23)NC(=O)[C@H](CCC(=O)O)NC(=O)[C@@H]2CCCN2C(=O)CNC1=O [Peptide-10]	9.17	9.18	8.46	7.19	7.63	8.26	8.27	8.23	9.44	–	–	9.08	–
CC(C)C[C@@H]1NC(=O)[C@@H](NC(=O)[C@H](C)NC(=O)[C@H](CO)NC(=O)CN)CSSC[C@@H](C(=O)N2CCC[C@H]2C(=O)N[C@@H](Cc2ccc(O)cc2)C(=O)O)NC(=O)[C@H](C(C)C)NC(=O)[C@H](CCC(=O)O)NC(=O)[C@H](Cc2c[nH]c3ccccc23)NC(=O)[C@H](CCC(=O)O)NC(=O)[C@@H]2CCCN2C(=O)CNC1=O [Peptide-11]	9.12	9.06	8.42	7.02	7.42	8.20	8.15	8.04	–	–	–	8.98	–
